Data: patent US20100184698A1, “USE OF A […] […] A […] AGENT” (priority 2007, published 2010)
Where no end group is shown, it is not given here.

Key:
[1] = test system: HIV-1IIIB; assay: HIV-1 antiviral assay in CEM-SS cells
[2] = test system: HCMV strain AD169; details: for inhibition of HCMV plaque formation as compared to the virus control experiment: 10 micrograms per ml, 7-10 days
[3] = test system: Primary Human endothelial cells (HUVEC); assay: Endothelial cell migration assay; type: cell-based; details: 10 micrograms per ml; 22 hours
Description: Thereafter, designated concentration of testing peptides—10 micrograms per ml—was added in duplicate wells.

[4] = test system: Interferon-γ (IFN-γ) production in murine spleen cells; assay: Th1/Th2 cytokine profiling assay: IFN-γ; type: cell-based, Balb/c mice; details: 10 micrograms per ml; Ovalbumin restimulation, 72 hours; combination 0.95:1.05 mole
[5] = test system: Interleukin-4 (IL-4) production in murine spleen cells; assay: Th1/Th2 cytokine profiling assay: IL-4; type: cell-based, Balb/c mice; details: 10 micrograms per ml, Ovalbumin restimulation, 72 hours
[6] = test system: Interleukin-5 (IL-5) production in murine spleen cells; assay: Th1/Th2 cytokine profiling assay: IL-5; type: cell-based, Balb/c mice; details: 10 micrograms per ml, Ovalbumin restimulation, 72 hours
[7] = test system: hepatitis B virus (HBV) ayw strain in HepG2-2.2.15 cells; assay: HBV experimental assay system (secreted HBV DNA, TaqMan PCR); type: cell-based; details: 10 micrograms per ml; 6 days; combination 0.95 mole peptide 1 and 1.05 mole peptide 2
[8] = test system: Interleukin-2 (IL-2) production in murine spleen cells; assay: Th1/Th2 cytokine profiling assay: IL-2; type: cell-based, Balb/c mice; details: 10 micrograms per ml; Ovalbumin restimulation, 72 hours
[9] = test system: Tumor Necrosis Factor-α (TNF-α) production in murine spleen cells; assay: Th1/Th2 cytokine profiling assay: TNF-α; type: cell-based, Balb/c mice; details: 10 micrograms per ml, Ovalbumin restimulation, 72 hours
[10] = test system: HUVEC; assay: Endothelial tube formation assay; type: cell-based, human; details: 10 micrograms per ml; 20 hours
From the text: Positive control was vehicle only.

| Compound | antiviral activity of positive control compounds [1] | inhibition of the migration of human endothelial cells [3] | production of IFN-y, decreased by [4] | inhibition of HCMV plaque formation as compared to the virus control experiment [2] | inhibition of HBV replication as compared to the virus control infection [7] | inhibition of the tube formation of human endothelial cells [10] | other results |
| --- | --- | --- | --- | --- | --- | --- | --- |
| Cc1cn([C@H]2C[C@H](N=[N+]=[N-])[C@@H](CO)O2)c(=O)[nH]c1=O [AZT] | expected levels of antiviral activity | – | – | – | – | – | – |
| Nc1nc(O)c2ncn(COC(CO)CO)c2n1 [Ganciclovir, reference compound] | – | – | – | – | – | – | antiviral activity of positive control compound ([2]; positive control, MRC-5 cells, HCMV): expected levels of antiviral activity |
| CCNC(=O)[C@@H]1CCCN1C(=O)[C@H](CCCN=C(N)N)NC(=O)[C@H](CC(C)C)NC(=O)[C@@H](Cc1c[nH]c2ccccc12)NC(=O)[C@H](Cc1ccc(O)cc1)NC(=O)[C@H](CO)NC(=O)[C@H](Cc1c[nH]c2ccccc12)NC(=O)[C@H](Cc1cnc[nH]1)NC(=O)[C@@H]1CCC(=O)N1 [Peptide 1, Pyr-His-Trp-Ser-Tyr-D-Trp-Leu-Arg-Pro-NHEt] | – | 3% | 31.4% | did not inhibit | 15.1% | 7% | production of IL-4, induced by [5]: 32.1%; production of IL-5, decreased by [6]: 27.6%; production of IL-2, decreased by [8]: 53.2%; change of the production of TNF-alpha ([9]; combination 0.95:1.05 mole): did not significantly change |
| CC(C)(C)NC(=O)[C@@H]1CN(Cc2cccnc2)CCN1C[C@@H](O)C[C@@H](Cc1ccccc1)C(=O)N[C@H]1c2ccccc2C[C@H]1O [indinavir] | expected levels of antiviral activity | – | – | – | – | – | – |
| Ile-Asn-Leu-Lys-Ala-Leu-Ala-Ala-Leu-Ala-Lys-Lys-Ile-Leu-NH2 (INLKALAALAKKIL-NH2) [Peptide 2] | – | 23% | 54% | did not inhibit | 40.6% | 10% | change of the production of IL-4 ([5]; combination 0.95:1.05 mole): did not significantly change; change of the production of IL-5 ([6]; combination 0.95:1.05 mole): did not significantly change; production of IL-2, increased by [8]: 77%; production of TNF-a, decreased by [9]: 61.3% |
